Species on record: Rattus norvegicus
Test: DrugMatrix - Regimen: Daily Repeat
Assay type: toxicity, organism-based, Sprague-Dawley
Parameters: regimen Daily Repeat, gender Male, age 6-8 weeks
Conditions: in vivo, po, route oral GAVAGE, vehicle .5 % CMC; for ABSOLUTE BASOPHIL / ABSOLUTE EOSINOPHIL / ABSOLUTE LYMPHOCYTE / ABSOLUTE MONOCYTE / ABSOLUTE SEGMENTED NEUTROPHIL / BASOPHIL / EOSINOPHIL / ERYTHROCYTE COUNT / HEMATOCRIT / HEMOGLOBIN / LEUKOCYTE COUNT / LYMPHOCYTE / MEAN CORPUSCULAR HEMOGLOBIN / MEAN CORPUSCULAR HEMOGLOBIN CONCENTRATION / MEAN CORPUSCULAR VOLUME / MONOCYTE / NEUTROPHIL / NUCLEATED RED BLOOD CELLS / PLATELET COUNT: tissue Blood; for ALANINE AMINOTRANSFERASE / ALBUMIN / ALKALINE PHOSPHATASE / ASPARTATE AMINOTRANSFERASE / BLOOD UREA NITROGEN / CARBON DIOXIDE / CHLORIDE / CHOLESTEROL / CREATINE PHOSPHOKINASE / CREATININE / GLUCOSE / LACTATE DEHYDROGENASE / LIPASE / PHOSPHORUS / POTASSIUM / SODIUM / TOTAL BILIRUBIN / TOTAL PROTEIN / URIC ACID: tissue Plasma
[1] = 0 mg/kg, 72 h, dose level Control, time 3 day
[2] = 0 mg/kg, 120 h, dose level Control, time 5 day
[3] = 47 mg/kg, 72 h, dose level High, time 3 day

SMILES: CN(C)C(=O)C(CCN1CCC(O)(c2ccc(Cl)cc2)CC1)(c1ccccc1)c1ccccc1 [LOPERAMIDE]
- ABSOLUTE BASOPHIL [1]: 0 CELLS/uL
- ABSOLUTE EOSINOPHIL [1]: 0 CELLS/uL
- ABSOLUTE LYMPHOCYTE [1]: 12191.17 CELLS/uL
- ABSOLUTE MONOCYTE [1]: 183.17 CELLS/uL
- ABSOLUTE SEGMENTED NEUTROPHIL [1]: 1192.33 CELLS/uL
- BASOPHIL [1]: 0%
- EOSINOPHIL [1]: 0%
- ERYTHROCYTE COUNT [1]: 5.51 x10E6/uL
- HEMATOCRIT [1]: 35.45%
- HEMOGLOBIN [1]: 13.82 G/DL
- LEUKOCYTE COUNT [1]: 13.57 x10E3/uL
- LYMPHOCYTE [1]: 89.83%
- MEAN CORPUSCULAR HEMOGLOBIN [1]: 25.1 pg
- MEAN CORPUSCULAR HEMOGLOBIN CONCENTRATION [1]: 38.98 G/DL
- MEAN CORPUSCULAR VOLUME [1]: 64.42 fL
- MONOCYTE [1]: 1.33%
- NEUTROPHIL [1]: 8.83%
- NUCLEATED RED BLOOD CELLS [1]: 0 /100WBC
- PLATELET COUNT [1]: 1118.17 x10E3/uL
- ALANINE AMINOTRANSFERASE [1]: 55 u/L
- ALBUMIN [1]: 4.15 G/DL
- ALKALINE PHOSPHATASE [1]: 449.5 u/L
- ASPARTATE AMINOTRANSFERASE [1]: 112.83 u/L
- BLOOD UREA NITROGEN [1]: 17.33 mg/dL
- CARBON DIOXIDE [1]: 29.5 mmol/L
- CHLORIDE [1]: 101 MEQ/L
- CHOLESTEROL [1]: 70 mg/dL
- CREATINE PHOSPHOKINASE [1]: 1325.83 u/L
- CREATININE [1]: 0.18 mg/dL
- GLUCOSE [1]: 171.5 mg/dL
- LACTATE DEHYDROGENASE [1]: 386 u/L
- LIPASE [1]: 10 u/L
- PHOSPHORUS [1]: 11.57 mg/dL
- POTASSIUM [1]: 6.21 MEQ/L
- SODIUM [1]: 141.65 MEQ/L
- TOTAL BILIRUBIN [1]: 0.15 mg/dL
- TOTAL PROTEIN [1]: 5.75 G/DL
- URIC ACID [1]: 1.28 mg/dL
- ABSOLUTE BASOPHIL [2]: 0 CELLS/uL
- ABSOLUTE EOSINOPHIL [2]: 138.17 CELLS/uL
- ABSOLUTE LYMPHOCYTE [2]: 13283.17 CELLS/uL
- ABSOLUTE MONOCYTE [2]: 303.83 CELLS/uL
- ABSOLUTE SEGMENTED NEUTROPHIL [2]: 1308.17 CELLS/uL
- BASOPHIL [2]: 0%
- EOSINOPHIL [2]: 1%
- ERYTHROCYTE COUNT [2]: 5.32 x10E6/uL
- HEMATOCRIT [2]: 33.8%
- HEMOGLOBIN [2]: 13.63 G/DL
- LEUKOCYTE COUNT [2]: 15.03 x10E3/uL
- LYMPHOCYTE [2]: 88.33%
- MEAN CORPUSCULAR HEMOGLOBIN [2]: 25.68 pg
- MEAN CORPUSCULAR HEMOGLOBIN CONCENTRATION [2]: 40.35 G/DL
- MEAN CORPUSCULAR VOLUME [2]: 63.67 fL
- MONOCYTE [2]: 1.83%
- NEUTROPHIL [2]: 8.83%
- NUCLEATED RED BLOOD CELLS [2]: 0 /100WBC
- PLATELET COUNT [2]: 1097.5 x10E3/uL
- ALANINE AMINOTRANSFERASE [2]: 54.5 u/L
- ALBUMIN [2]: 4.27 G/DL
- ALKALINE PHOSPHATASE [2]: 337 u/L
- ASPARTATE AMINOTRANSFERASE [2]: 94.67 u/L
- BLOOD UREA NITROGEN [2]: 17 mg/dL
- CARBON DIOXIDE [2]: 28.33 mmol/L
- CHLORIDE [2]: 101.5 MEQ/L
- CHOLESTEROL [2]: 71.33 mg/dL
- CREATINE PHOSPHOKINASE [2]: 628.17 u/L
- CREATININE [2]: 0.19 mg/dL
- GLUCOSE [2]: 177.83 mg/dL
- LACTATE DEHYDROGENASE [2]: 500.5 u/L
- LIPASE [2]: 9.5 u/L
- PHOSPHORUS [2]: 12.3 mg/dL
- POTASSIUM [2]: 5.63 MEQ/L
- SODIUM [2]: 143.03 MEQ/L
- TOTAL BILIRUBIN [2]: 0.2 mg/dL
- TOTAL PROTEIN [2]: 6.02 G/DL
- URIC ACID [2]: 1.5 mg/dL
- ABSOLUTE BASOPHIL [3]: 0 CELLS/uL
- ABSOLUTE EOSINOPHIL [3]: 41.67 CELLS/uL
- ABSOLUTE LYMPHOCYTE [3]: 10763.67 CELLS/uL
- ABSOLUTE MONOCYTE [3]: 116.33 CELLS/uL
- ABSOLUTE SEGMENTED NEUTROPHIL [3]: 1178.33 CELLS/uL
- BASOPHIL [3]: 0%
- EOSINOPHIL [3]: 0.33%
- ERYTHROCYTE COUNT [3]: 5.35 x10E6/uL
- HEMATOCRIT [3]: 35.5%
- HEMOGLOBIN [3]: 13.67 G/DL
- LEUKOCYTE COUNT [3]: 12.1 x10E3/uL
- LYMPHOCYTE [3]: 89%
- MEAN CORPUSCULAR HEMOGLOBIN [3]: 25.6 pg
- MEAN CORPUSCULAR HEMOGLOBIN CONCENTRATION [3]: 38.47 G/DL
- MEAN CORPUSCULAR VOLUME [3]: 66.47 fL
- MONOCYTE [3]: 1%
- NEUTROPHIL [3]: 9.67%
- NUCLEATED RED BLOOD CELLS [3]: 0 /100WBC
- PLATELET COUNT [3]: 1353 x10E3/uL
- ALANINE AMINOTRANSFERASE [3]: 75 u/L
- ALBUMIN [3]: 3.9 G/DL
- ALKALINE PHOSPHATASE [3]: 286.67 u/L
- ASPARTATE AMINOTRANSFERASE [3]: 88 u/L
- BLOOD UREA NITROGEN [3]: 15 mg/dL
- CARBON DIOXIDE [3]: 30.67 mmol/L
- CHLORIDE [3]: 102 MEQ/L
- CHOLESTEROL [3]: 68 mg/dL
- CREATINE PHOSPHOKINASE [3]: 336.67 u/L
- CREATININE [3]: 0.15 mg/dL
- GLUCOSE [3]: 144.33 mg/dL
- LACTATE DEHYDROGENASE [3]: 285.33 u/L
- LIPASE [3]: 9.33 u/L
- PHOSPHORUS [3]: 11.33 mg/dL
- POTASSIUM [3]: 6.22 MEQ/L
- SODIUM [3]: 144.77 MEQ/L
- TOTAL BILIRUBIN [3]: 0.1 mg/dL
- TOTAL PROTEIN [3]: 5.5 G/DL
- URIC ACID [3]: 1.43 mg/dL
